According to PubChem BioAssay (NCI):
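96-well plates; 48 h exposure; 5 concentrations. Endpoints by linear interpolation between flanking doses. Not reached: highest tested concentration assigned. TGI: concentration producing complete growth inhibition.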

What was measured:
Assay in all cases: NCI-60 cell line screen, 48 h
[1] = system: RXF 393 renal
[2] = system: NCI/ADR-RES ovarian
[3] = system: HS 578T breast
[4] = system: MALME-3M melanoma
[5] = system: HOP-92 NSCLC
[6] = system: MOLT-4 leukemia
[7] = system: SK-MEL-5 melanoma
[8] = system: M14 melanoma
[9] = system: CAKI-1 renal
[10] = system: K-562 leukemia
[11] = system: SK-MEL-2 melanoma
[12] = system: T-47D breast
[13] = system: HOP-62 NSCLC
[14] = system: NCI-H23 lung
[15] = system: CCRF-CEM leukemia
[16] = system: ACHN renal
[17] = system: MDA-MB-231 breast
[18] = system: HCT-15 colon
[19] = system: NCI-H226 lung
[20] = system: A498 renal
[21] = system: SNB-19 CNS
[22] = system: OVCAR-8 ovarian
[23] = system: OVCAR-5 ovarian
[24] = system: SF-539 CNS
[25] = system: MDA-N
[26] = system: NCI-H460 lung
[27] = system: MCF7 breast
[28] = system: SNB-75 CNS
[29] = system: PC-3 prostate
[30] = system: DU-145 prostate
[31] = system: LOX IMVI melanoma
[32] = system: EKVX NSCLC
[33] = system: OVCAR-4 ovarian
[34] = system: HL-60(TB) leukemia
[35] = system: SF-268 CNS
[36] = system: A549 NSCLC
[37] = system: OVCAR-3 ovarian
[38] = system: SN12C renal
[39] = system: SK-MEL-28 melanoma
[40] = system: RPMI-8226 leukemia
[41] = system: 786-0 renal
[42] = system: SK-OV-3 ovarian
[43] = system: SR leukemia
[44] = system: UACC-62 melanoma
[45] = system: HCC-2998 colon
[46] = system: HCT-116 colon
[47] = system: SF-295 CNS
[48] = system: UO-31 renal
[49] = system: U251 CNS
[50] = system: UACC-257 melanoma
[51] = system: COLO 205 colon
[52] = system: HT29 colon
[53] = system: TK-10 renal
[54] = system: NCI-H522 lung
[55] = system: MDA-MB-435
[56] = system: KM12 colon
[57] = system: IGROV1 ovarian
[58] = system: BT-549 breast
[59] = system: SW-620 colon

NCCCCNCCCNC(=O)CNC(=O)CC(O)C(N)CCCC(NC(=O)C(CN)NC(=O)C(O)CNC(=O)CC(N)c1ccc(O)cc1)C(=O)O (stereo not given)
TGI [1]: > 10 µM | TGI [2]: > 10 µM | TGI [3]: > 10 µM | TGI [4]: > 10 µM | TGI [5]: > 10 µM | TGI [6]: > 10 µM | TGI [7]: > 10 µM | TGI [8]: > 10 µM | TGI [9]: > 10 µM | TGI [10]: > 10 µM | TGI [11]: > 10 µM | TGI [12]: > 10 µM | TGI [13]: > 10 µM | TGI [14]: > 10 µM | TGI [15]: > 10 µM | TGI [16]: > 10 µM | TGI [17]: > 10 µM | TGI [18]: > 10 µM | TGI [19]: > 10 µM | TGI [20]: > 10 µM | TGI [21]: > 10 µM | TGI [22]: > 10 µM | TGI [23]: > 10 µM | TGI [24]: > 10 µM | TGI [25]: > 10 µM | TGI [26]: > 10 µM | TGI [27]: > 10 µM | TGI [28]: > 10 µM | TGI [29]: > 10 µM | TGI [30]: > 10 µM | TGI [31]: > 10 µM | TGI [32]: > 10 µM | TGI [33]: > 10 µM | TGI [34]: > 10 µM | TGI [35]: > 10 µM | TGI [36]: > 10 µM | TGI [37]: > 10 µM | TGI [38]: > 10 µM | TGI [39]: > 10 µM | TGI [40]: > 10 µM | TGI [41]: > 10 µM | TGI [42]: > 10 µM | TGI [43]: > 10 µM | TGI [44]: > 10 µM | TGI [45]: > 10 µM | TGI [46]: > 10 µM | TGI [47]: > 10 µM | TGI [48]: > 10 µM | TGI [49]: > 10 µM | TGI [50]: > 10 µM | TGI [51]: > 10 µM | TGI [52]: > 10 µM | TGI [53]: > 10 µM | TGI [54]: > 10 µM | TGI [55]: > 10 µM | TGI [56]: > 10 µM | TGI [57]: > 10 µM | TGI [58]: > 10 µM

C=C1CC(COc2ccc3c(C)c(C)c(=O)oc3c2C)(c2ccccc2)OC1=O (stereo not given)
TGI [2]: 8.24 µM | TGI [3]: 13 µM | TGI [4]: 4.16 µM | TGI [5]: 2.96 µM | TGI [6]: 3.05 µM | TGI [7]: 3.23 µM | TGI [8]: 4.23 µM | TGI [9]: 3.33 µM | TGI [10]: 3.88 µM | TGI [11]: 3.91 µM | TGI [12]: 4.96 µM | TGI [13]: 20.8 µM | TGI [14]: 4.64 µM | TGI [15]: 1.55 µM | TGI [16]: 7.51 µM | TGI [17]: 7.86 µM | TGI [18]: 3.84 µM | TGI [19]: 6.73 µM | TGI [20]: 12.5 µM | TGI [21]: 27.1 µM | TGI [22]: 3.59 µM | TGI [23]: 25.1 µM | TGI [24]: 4.75 µM | TGI [25]: 4.4 µM | TGI [26]: 18 µM | TGI [27]: 3.56 µM | TGI [28]: 10.4 µM | TGI [29]: 3.84 µM | TGI [30]: 6 µM | TGI [31]: 2.85 µM | TGI [59]: 3.5 µM | TGI [32]: 20.8 µM | TGI [33]: 4.82 µM | TGI [34]: 5.54 µM | TGI [35]: 7.96 µM | TGI [36]: 26.7 µM | TGI [37]: 9.66 µM | TGI [38]: 11.3 µM | TGI [39]: 5.44 µM | TGI [40]: 0.764 µM | TGI [41]: 2.78 µM | TGI [42]: 13.4 µM | TGI [43]: > 100 µM | TGI [44]: 3.42 µM | TGI [45]: 7.12 µM | TGI [46]: 2.77 µM | TGI [47]: 19.2 µM | TGI [48]: 7 µM | TGI [49]: 20.3 µM | TGI [50]: 2.14 µM | TGI [51]: 3.24 µM | TGI [52]: 3.27 µM | TGI [53]: 3.03 µM | TGI [54]: 4.16 µM | TGI [55]: 7.96 µM | TGI [56]: 9.35 µM | TGI [57]: 3.47 µM | TGI [58]: 3.17 µM

O=C(OC12CC3CC(CC(C3)C1)C2)c1ccc(NCc2cc(O)ccc2O)cc1
TGI [1]: 1.02 µM | TGI [2]: 2.76 µM | TGI [3]: 4.41 µM | TGI [4]: 1.67 µM | TGI [5]: 2.07 µM | TGI [6]: 0.451 µM | TGI [7]: 3.74 µM | TGI [8]: 5.18 µM | TGI [9]: 0.825 µM | TGI [10]: 2.38 µM | TGI [11]: 3.57 µM | TGI [12]: 1.04 µM | TGI [13]: 14.8 µM | TGI [14]: 3.8 µM | TGI [15]: 0.723 µM | TGI [16]: 2.35 µM | TGI [17]: 5.87 µM | TGI [18]: 2.29 µM | TGI [19]: 6.2 µM | TGI [20]: 4.98 µM | TGI [21]: 11.7 µM | TGI [22]: 4.11 µM | TGI [23]: 4.59 µM | TGI [24]: 1.31 µM | TGI [25]: 6.56 µM | TGI [26]: 16.6 µM | TGI [27]: 8.54 µM | TGI [28]: 2.68 µM | TGI [29]: 3.37 µM | TGI [30]: 16.7 µM | TGI [31]: 8.94 µM | TGI [59]: 4.92 µM | TGI [32]: 3.37 µM | TGI [33]: 1.97 µM | TGI [34]: 0.627 µM | TGI [35]: 5.69 µM | TGI [36]: 16.5 µM | TGI [37]: 2.3 µM | TGI [38]: 9.22 µM | TGI [39]: 1.62 µM | TGI [40]: 0.401 µM | TGI [41]: 2.86 µM | TGI [42]: 13.2 µM | TGI [43]: 0.907 µM | TGI [44]: 3.28 µM | TGI [45]: 3.75 µM | TGI [46]: 5.28 µM | TGI [47]: 7.5 µM | TGI [48]: 2.06 µM | TGI [49]: 2.69 µM | TGI [50]: 2.98 µM | TGI [51]: 1.12 µM | TGI [52]: 9.73 µM | TGI [53]: 1.96 µM | TGI [54]: 0.237 µM | TGI [55]: 4.45 µM | TGI [56]: 5.19 µM | TGI [57]: 0.816 µM | TGI [58]: 1.71 µM
